The target of this experiment is T1, Cytochrome P450 1A2 (Homo sapiens, UniProt P05177).
T1 sequence (P05177 whole entry): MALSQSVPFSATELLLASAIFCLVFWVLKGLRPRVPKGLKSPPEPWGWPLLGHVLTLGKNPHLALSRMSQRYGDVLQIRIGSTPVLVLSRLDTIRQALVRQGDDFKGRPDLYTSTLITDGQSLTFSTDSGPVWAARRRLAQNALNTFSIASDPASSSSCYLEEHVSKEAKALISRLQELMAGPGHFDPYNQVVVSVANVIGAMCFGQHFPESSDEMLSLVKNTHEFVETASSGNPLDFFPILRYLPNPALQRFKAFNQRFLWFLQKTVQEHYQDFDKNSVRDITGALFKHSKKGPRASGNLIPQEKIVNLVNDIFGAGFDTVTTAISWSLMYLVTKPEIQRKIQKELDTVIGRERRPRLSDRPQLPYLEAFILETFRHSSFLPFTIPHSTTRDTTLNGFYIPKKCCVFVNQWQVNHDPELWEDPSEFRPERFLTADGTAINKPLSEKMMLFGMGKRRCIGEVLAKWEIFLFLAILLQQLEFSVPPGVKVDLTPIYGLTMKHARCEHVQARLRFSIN
Put plainly: Inhibition of human CYP1A2. It counts as ADME.

This note sets out measurements from ChEMBL document CHEMBL3621143, “Discovery of BMS-641988, a Novel Androgen Receptor Antagonist for the Treatment of Prostate Cancer” (ACS Med Chem Lett, 2015).

Each structure is given as a SMILES string.

A word on the IC50: it is the concentration that inhibits the measured activity by half. Lower therefore signals greater potency.

Turning to `CCS(=O)(=O)N[C@@H]1C[C@]2(C)O[C@]1(C)[C@@H]1C(=O)N(c3ccc(C#N)c(C(F)(F)F)c3)C(=O)[C@@H]12`, the IC50 was greater than 40 µM.
